From US5602100A, “Dermorphin analogs having pharmacological activity” (priority 1988, dated 1997)
Non-standard residues stand in square brackets, D forms with d. Residues, ends and D or L forms follow the SMILES beside them. dNle = CCCC[C@@H](N)C(=O)O; dNva = CCC[C@@H](N)C(=O)O; Orn = NCCC[C@H](N)C(=O)O; Dab = NCC[C@H](N)C(=O)O

Experiments:
[1] = tested on: hot plate stimulus; assay: Mouse hot plate test; assay type: in vivo
Description: The mouse hot plate test is an assay which only detects centrally-mediated analgesic effects. This test was carried out using the protocol described in G. Woolfe and A. MacDonald, J. Pharmacol. Exp. Ther., 80, p. 300 ([…]).
Since most of the peptides of the invention were not potent centrally, it was impossible to determine an ED50 value. […] A result is considered insignificant if 30% of mice or lower have responded.

[2] = tested on: PBQ-induced writhing; assay: Mouse writhing test (PBQ); assay type: in vivo; conditions: dose reducing the number of writhes by 50%
Description: The mouse writhing test detects both peripherally and centrally mediated analgesic effects. The test procedure is described in Siegmund et al., Proc. Soc. Exp. Biol. Med., 95, p. 729 (1957). In this test, a control group of albino mice was injected intraperitoneally with 0.3 ml/20 g body weight of a 0.02% solution of 2-phenyl-1,4-benzoquinone (PBQ). The writhing and contortional movements of the mice over the following 15 minutes were recorded. A second group of mice was given a dose of a synthetic dermorphin analog according to this invention, then allowed to wait a period of time before being administered the PBQ injection. The average number of writhes was then recorded and compared to the control group. The results of this test are expressed as the dosage of peptide that reduces the number of writhes by 50% at a given time interval (referred to as ED50).

[3] = biological target: T1, μ-opioid receptor (Rattus norvegicus, UniProt P33535); assay: biochemical; assay type: binding
T1 construct: displacement of the radioligands from the rat brain membrane preparations; from tissue; host or cells: rat brain membrane preparations

[4] = biological target: T2, δ-opioid receptor (Rattus norvegicus, UniProt P33533); assay: biochemical; assay type: binding
T2 construct: displacement of the radioligands from the rat brain membrane preparations; from tissue; host or cells: rat brain membrane preparations

[5] = Respiration rate (respiratory depression); assay type: in vivo, rat; conditions: dose 30 mg/kg; control 142 ± 5
Description: In addition to the mouse writhing data, respiratory depression was measured in certain treated mice. Respiratory depression is a commonly observed side effect characteristic of centrally-acting opiates. These reulsts are expressed in Table 5.

T1 sequence (P33535 whole entry): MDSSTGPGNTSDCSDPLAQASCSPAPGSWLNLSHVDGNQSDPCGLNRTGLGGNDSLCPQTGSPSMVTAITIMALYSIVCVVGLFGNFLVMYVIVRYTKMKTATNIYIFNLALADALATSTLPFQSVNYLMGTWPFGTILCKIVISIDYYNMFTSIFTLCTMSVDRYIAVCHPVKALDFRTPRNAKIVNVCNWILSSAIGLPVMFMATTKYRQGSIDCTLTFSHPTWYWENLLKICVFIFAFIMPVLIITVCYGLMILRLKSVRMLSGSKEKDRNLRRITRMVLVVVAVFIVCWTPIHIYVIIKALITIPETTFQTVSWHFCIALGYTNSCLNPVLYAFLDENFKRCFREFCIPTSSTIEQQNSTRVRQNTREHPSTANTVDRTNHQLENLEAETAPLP
T2 sequence (P33533 whole entry): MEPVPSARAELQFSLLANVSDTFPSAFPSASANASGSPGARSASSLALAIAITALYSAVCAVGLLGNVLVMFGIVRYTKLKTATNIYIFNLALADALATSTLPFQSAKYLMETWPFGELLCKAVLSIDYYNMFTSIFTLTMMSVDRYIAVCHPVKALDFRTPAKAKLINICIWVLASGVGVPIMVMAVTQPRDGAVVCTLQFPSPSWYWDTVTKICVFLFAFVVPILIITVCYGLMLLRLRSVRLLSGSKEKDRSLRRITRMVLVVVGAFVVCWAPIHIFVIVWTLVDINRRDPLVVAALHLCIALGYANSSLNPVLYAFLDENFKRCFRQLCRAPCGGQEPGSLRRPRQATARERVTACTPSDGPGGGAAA

SMILES | % of animals showing a 50% increase ([1]; dose 40 mg/kg, time 30 min.) | PBQ (20 min.) ED50 [2] | Ki [3] | Ki^δ /Ki^μ [3] | Ki [4] | % of animals showing a 50% increase ([1]; dose 40 mg/kg, time 60 min.) | % of animals showing a 50% increase ([1]; dose 100 mg/kg, time 30 min.) | % of animals showing a 50% increase ([1]; dose 100 mg/kg, time 50 min.) | % of animals showing a 50% increase ([1]; dose 40 mg/kg, time 120 min.) | % of animals showing a 50% increase ([1]; dose 100 mg/kg, time 60 min.) | Breaths per min. [5]
NCCC[C@H](NC(=O)[C@H](Cc1ccccc1)NC(=O)[C@@H](CO)NC(=O)[C@@H](N)Cc1ccc(O)cc1)C(N)=O [BCH-2461, H-Tyr-D-Ser-Phe-Orn-NH2] (H-Y[dS]F[Orn]-NH2) | 50% | 0.7 mg/kg | 13.2 nM | 1210.57 | 15900 nM |  |  |  |  |  | 
NCC[C@H](NC(=O)[C@H](Cc1ccccc1)NC(=O)[C@@H](CO)NC(=O)[C@@H](N)Cc1ccc(O)cc1)C(N)=O [BCH-2469, H-Tyr-D-Ser-Phe-A2 bu-NH2] (H-Y[dS]F[Dab]-NH2) |  | 1.5 mg/kg | 5.11 nM | 1071.20 | 5480 nM | 90% |  |  |  |  | 
CC(C)C[C@@H](NC(=O)[C@@H](N)Cc1ccc(O)cc1)C(=O)N[C@@H](Cc1ccccc1)C(=O)N[C@@H](CCN)C(N)=O [BCH-2474, H-Tyr-D-Leu-Phe-A2 bu-NH2] (H-Y[dL]F[Dab]-NH2) |  | > 10 mg/kg | 69.8 nM | 186.98 | 13100 nM |  |  |  |  |  | 
NCCCC[C@H](NC(=O)[C@H](Cc1ccccc1)NC(=O)[C@@H](CO)NC(=O)[C@@H](N)Cc1ccc(O)cc1)C(N)=O [BCH-2209, H-Tyr-D-Ser-Phe-Lys-NH2] (H-Y[dS]FK-NH2) | 40% | 2.8 mg/kg | 24.1 nM | > 105 | > 2530 nM |  | 40% |  |  |  | 
CCC[C@@H](NC(=O)[C@@H](N)Cc1ccc(O)cc1)C(=O)N[C@@H](Cc1ccccc1)C(=O)N[C@@H](CCN)C(N)=O [BCH-2471, H-Tyr-D-Nva-Phe-A2 bu-NH2] (H-Y[dNva]F[Dab]-NH2) |  | 0.2 mg/kg | 0.56 nM | 790.51 | 441 nM | 100% |  |  |  |  | 
CC(C)C[C@@H](NC(=O)[C@@H](N)Cc1ccc(O)cc1)C(=O)N[C@@H](Cc1ccccc1)C(=O)N[C@@H](CCCCN)C(N)=O [BCH-2207, H-Tyr-D-Leu-Phe-Lys-NH2] (H-Y[dL]FK-NH2) | 20% |  | 168 nM | > 15 | > 2530 nM |  |  | 0% |  |  | 
CC[C@@H](C)[C@@H](NC(=O)[C@@H](N)Cc1ccc(O)cc1)C(=O)N[C@@H](Cc1ccccc1)C(=O)N[C@@H](CCN)C(N)=O [BCH-2468, H-Tyr-D-Ile-Phe-A2 bu-NH2] (H-Y[dI]F[Dab]-NH2) |  | 3 to 10 mg/kg | 9.7 nM | 260.61 | 2530 nM |  |  |  |  |  | 
C[C@@H](NC(=O)[C@@H](N)Cc1ccc(O)cc1)C(=O)N[C@@H](Cc1ccccc1)C(=O)N[C@@H](CCCCN)C(N)=O [BCH-1789, H-Tyr-D-Ala-Phe-Lys-NH2] (H-Y[dA]FK-NH2) |  | 0.6 mg/kg | 33.3 nM | 133 | 4430 nM |  |  |  | 40% | 80% | 182 ± 24 breaths per min.
CC(C)[C@@H](NC(=O)[C@@H](N)Cc1ccc(O)cc1)C(=O)N[C@@H](Cc1ccccc1)C(=O)N[C@@H](CCN)C(N)=O [BCH-2467, H-Tyr-D-Val-Phe-A2 bu-NH2] (H-Y[dV]F[Dab]-NH2) |  | 2 mg/kg | 2.64 nM | 1113.55 | 6280 nM | 90% |  |  |  |  | 
CC(C)C[C@@H](NC(=O)[C@@H](N)Cc1ccc(O)cc1)C(=O)N[C@@H](Cc1ccccc1)C(=O)N[C@@H](CCCN)C(N)=O [BCH-2459, H-Tyr-D-Leu-Phe-Orn-NH2] (H-Y[dL]F[Orn]-NH2) |  |  | 77.5 nM | 240.10 | 18600 nM |  |  |  |  |  | 
CC[C@@H](C)[C@@H](NC(=O)[C@@H](N)Cc1ccc(O)cc1)C(=O)N[C@@H](Cc1ccccc1)C(=O)N[C@@H](CCCN)C(N)=O [BCH-2456, H-Tyr-D-Ile-Phe-Orn-NH2] (H-Y[dI]F[Orn]-NH2) |  | 0.6 mg/kg | 4.49 nM | 952.35 | 4280 nM | 40% |  |  |  | 50% | 
CCCC[C@@H](NC(=O)[C@@H](N)Cc1ccc(O)cc1)C(=O)N[C@@H](Cc1ccccc1)C(=O)N[C@@H](CCN)C(N)=O [BCH-2472, H-Tyr-D-Nle-Phe-A2 bu-NH2] (H-Y[dNle]F[Dab]-NH2) |  | 0.8 mg/kg | 10.2 nM | 207.88 | 2130 nM | 60% |  |  |  |  | 
